In the OligoGym collection:
After the bases stand the sugars from the 5' end (letter, count) and the backbone: PS all phosphorothioate, else s phosphorothioate and o phosphodiester by linkage. Methylation of C is not given here. e = 2'-O-(2-methoxyethyl) (MOE); k = constrained ethyl (cEt); d = 2'-deoxy (DNA); m = 2'-O-methyl

Molecular target: HSD17B13
Settings: ASO, HepaRG

| Sequence | target mRNA inhibition (1 µM) [%] | other results |
| --- | --- | --- |
| GGAGTACTTCACAATT (sugars k3 d10 k3, PS) | 79 | target mRNA inhibition (0.02 µM): 20%; target mRNA inhibition (0.078 µM): 25%; target mRNA inhibition (0.313 µM): 42%; target mRNA inhibition (1.25 µM): 75%; target mRNA inhibition (5 µM): 87% |
| GGAGTAGATGATGGTG (sugars k3 d10 k3, PS) | 31 | – |
| GGAGTCGGATTATTTT (sugars k3 d10 k3, PS) | 41 | – |
| GGATATGTCATCTAAA (sugars k3 d10 k3, PS) | 68 | – |
| GGATGTTAGGACCCAG (sugars k3 d10 k3, PS) | 81 | target mRNA inhibition (0.02 µM): 4%; target mRNA inhibition (0.078 µM): 18%; target mRNA inhibition (0.313 µM): 69%; target mRNA inhibition (1.25 µM): 89%; target mRNA inhibition (5 µM): 93% |
| GGATTTCTAGGATGAT (sugars k3 d10 k3, PS) | 58 | – |
| GGCCGCACACTGAAGC (sugars k3 d10 k3, PS) | 9 | – |
| GGCCTGAAGTTCTGAT (sugars k3 d10 k3, PS) | 0 | – |
| GGCTACAGATTGGAAT (sugars kkdddddddddkekek, PS) | 73 | target mRNA inhibition (0.02 µM): 16%; target mRNA inhibition (0.078 µM): 0%; target mRNA inhibition (0.313 µM): 27%; target mRNA inhibition (1.25 µM): 62%; target mRNA inhibition (5 µM): 83% |
| GGCTAGGATTAATCAT (sugars k3 d10 k3, PS) | 44 | – |
| GGCTATAGTAATTGCT (sugars k3 d10 k3, PS) | 13 | – |
| GGCTGTAAGAGTCAGT (sugars k3 d10 k3, PS) | 88 | target mRNA inhibition (0.02 µM): 0%; target mRNA inhibition (0.078 µM): 0%; target mRNA inhibition (0.313 µM): 0%; target mRNA inhibition (1.25 µM): 51%; target mRNA inhibition (5 µM): 42% |
| GGCTTTATCATTCTAA (sugars k3 d10 k3, PS) | 20 | – |
| GGGAAATTGTTGCTGT (sugars k3 d10 k3, PS) | 42 | – |
| GGGAATGCTCATATTA (sugars k3 d10 k3, PS) | 18 | – |
| GGGACCAATATAATCC (sugars k3 d10 k3, PS) | 31 | – |

| Sequence | target mRNA inhibition (1 µM) [%] | other results |
| --- | --- | --- |
| GGGAGGTAGCTTTTGT (sugars k3 d10 k3, PS) | 10 | – |
| GGGATAAACTGTTCTT (sugars k3 d10 k3, PS) | 47 | – |
| GGGCTAGAACTTAAAA (sugars k3 d10 k3, PS) | 35 | – |
| GGGTGGTAACGGTGAT (sugars k3 d10 k3, PS) | 46 | – |
| GGTCACCTTTCATAAT (sugars k3 d10 k3, PS) | 57 | – |
| GGTCACCTTTCATAAT (sugars kkdddddddddkekek, PS) | 52 | – |
| GGTGAACCCAGTATTC (sugars k3 d10 k3, PS) | 7 | – |
| GGTGGTAACGGTGATC (sugars kkdddddddddkekek, PS) | 39 | – |
| GGTTGAGATAAAGCTG (sugars k3 d10 k3, PS) | 76 | target mRNA inhibition (0.02 µM): 0%; target mRNA inhibition (0.078 µM): 0%; target mRNA inhibition (0.313 µM): 37%; target mRNA inhibition (1.25 µM): 65%; target mRNA inhibition (5 µM): 86% |
| GGTTGAGATAAAGCTG (sugars kkdddddddddkekek, PS) | 60 | – |
| GTAAACTAAAGTACTT (sugars k3 d10 k3, PS) | 0 | – |
| GTAAACTGTATGCCTC (sugars k3 d10 k3, PS) | 74 | target mRNA inhibition (0.02 µM): 5%; target mRNA inhibition (0.078 µM): 30%; target mRNA inhibition (0.313 µM): 43%; target mRNA inhibition (1.25 µM): 78%; target mRNA inhibition (5 µM): 86% |
| GTAAAGTTTGTTAGAG (sugars k3 d10 k3, PS) | 54 | – |
| GTAACGGTGATCAAAT (sugars k3 d1 m1 d8 k3, PS) | 21 | – |
| GTAACGGTGATCAAAT (sugars k3 d9 k3 e1, PS) | 32 | – |
| GTAAGAGTCAGTATCC (sugars k3 d10 k3, PS) | 47 | – |
